Reference: the supplement of paper PMC13380429

Columns and labels:
Settings in all cases: 72 h
HepG2 [1] = test: cell viability relative to DMSO; higher = less toxic
Caco-2 [2] = test: as above
Vero E6 [3] = test: as above
U2OS [4] = test: as above
Calu-3 [5] = test: as above
HepG2 [6] = test: drug sensitivity score (DSS) for viability; higher = more toxic; extreme values may be limits of the assay
Caco-2 [7] = test: as above
Vero E6 [8] = test: as above
U2OS [9] = test: as above
Calu-3 [10] = test: as above
HepG2 [11] = test: relative viability EC50 (midpoint between 100% and the lowest measured viability); higher = less toxic
Caco-2 [12] = test: as above
Vero E6 [13] = test: as above
U2OS [14] = test: as above
Calu-3 [15] = test: as above

Compound	cell viability (HepG2 [1]; 1 nM) [%]	cell viability (HepG2 [1]; 10 nM) [%]	cell viability (HepG2 [1]; 100 nM) [%]	cell viability (HepG2 [1]; 1000 nM) [%]	cell viability (HepG2 [1]; 10000 nM) [%]	cell viability (Caco-2 [2]; 1 nM) [%]	cell viability (Caco-2 [2]; 10 nM) [%]	cell viability (Caco-2 [2]; 100 nM) [%]	cell viability (Caco-2 [2]; 1000 nM) [%]	cell viability (Caco-2 [2]; 10000 nM) [%]	cell viability (Vero E6 [3]; 1 nM) [%]	cell viability (Vero E6 [3]; 10 nM) [%]	cell viability (Vero E6 [3]; 100 nM) [%]	cell viability (Vero E6 [3]; 1000 nM) [%]	cell viability (Vero E6 [3]; 10000 nM) [%]	cell viability (U2OS [4]; 1 nM) [%]	cell viability (U2OS [4]; 10 nM) [%]	cell viability (U2OS [4]; 100 nM) [%]	cell viability (U2OS [4]; 1000 nM) [%]	cell viability (U2OS [4]; 10000 nM) [%]	cell viability (Calu-3 [5]; 1 nM) [%]	cell viability (Calu-3 [5]; 10 nM) [%]	cell viability (Calu-3 [5]; 100 nM) [%]	cell viability (Calu-3 [5]; 1000 nM) [%]	cell viability (Calu-3 [5]; 10000 nM) [%]	drug sensitivity score (HepG2 [6])	drug sensitivity score (Caco-2 [7])	drug sensitivity score (Vero E6 [8])	drug sensitivity score (U2OS [9])	drug sensitivity score (Calu-3 [10])	relative viability EC50 (HepG2 [11]) [µM]	relative viability EC50 (Caco-2 [12]) [µM]	relative viability EC50 (Vero E6 [13]) [µM]	relative viability EC50 (U2OS [14]) [µM]	relative viability EC50 (Calu-3 [15]) [µM]
CC(=O)Nc1cccc(O)c1 [metacetamol]	103	91.5	93.7	92.1	83.8	104	101	89.1	93.8	98.8	102	94.1	96	97.9	102	103	101	99.7	95.5	101	98.1	101	99.9	99.8	96.9	0.6	0	0	0	0	> 10	> 10	> 10	> 10	> 10
Cc1cc(C(C)(C)CC(C)(C)C)ccc1OCCOCC[N+](C)(C)Cc1ccccc1 [methylbenzethonium-chloride]	92	105	98.1	108	81.2	95.2	102	99.3	85	42.5	95.9	98.5	92.2	98.3	106	101	94.7	102	98.9	82.2	103	103	91.4	89.8	80.5	0.3	5.4	0	0.6	1.3	> 10	1.51	> 10	> 10	> 10
CCCCCCCCCCCCCCCCOP(=O)([O-])OCC[N+](C)(C)C [miltefosine]	107	98.5	112	96.4	109	113	104	106	114	99.8	96.1	101	110	105	77.3	96.8	103	97.2	99.9	95.5	98.3	91.5	90.3	108	86.5	0	0	0.6	0	0	> 10	> 10	> 10	> 10	> 10
COc1nc(C)nc(Cl)c1NC1=NCCN1 [moxonidine]	103	101	99.3	104	95.5	97.1	95.6	95.8	105	88.7	102	100	93.2	94.5	106	98.7	101	97.1	102	99.3	96.2	93.5	90	101	97.5	0	0	0	0	0	> 10	> 10	> 10	> 10	> 10
CC[C@@H](Nc1c(Nc2cccc(C(=O)N(C)C)c2O)c(=O)c1=O)c1ccc(C)o1 [navarixin]	97.9	87.4	93.8	94.6	99	95	99.3	106	99.3	91.6	94.9	95.3	96.6	90.2	107	93.4	102	98.3	98.4	103	89.2	98.3	95.1	102	105	0	0	0	0	0	> 10	> 10	> 10	> 10	> 10
CN1C(=O)C(Cc2c[nH]c3ccccc23)NC1=S (stereo not given) [necrostatin-1]	110	94.5	98.1	94.6	90.6	97.7	95.8	107	110	100	95.8	99	101	99.8	103	93.6	99.2	97.7	98.6	95.1	93.9	92	90.3	96.2	99	0	0	0	0	0	> 10	> 10	> 10	> 10	> 10
CCOC(=O)c1ccc(N(C)c2csc(-c3ccccc3)n2)cc1 [neuropathiazol]	86.2	97.3	103	107	93.2	92.9	94.1	80.2	97.3	104	108	103	96.2	101	96.3	101	97.2	98.8	99.5	99.3	92.4	97.2	108	110	97.3	0	0	0	0	0	> 10	> 10	> 10	> 10	> 10
COC(=O)C1=C(C)NC(C)=C(C(=O)OCCN(C)Cc2ccccc2)C1c1cccc([N+](=O)[O-])c1 (stereo not given) [nicardipine]	91.6	100	141	109	95.4	102	120	97.9	84.1	84.8	93.2	106	98.2	103	96.9	96.5	103	95.5	98.1	91.3	91.7	91.5	94.1	90.2	90.2	0	1.9	0	0	0	> 10	> 10	> 10	> 10	> 10
Cc1cc2c(s1)Nc1ccccc1N=C2N1CCN(C)CC1 [olanzapine]	118	110	121	98.5	106	97.8	91.5	98.1	99.1	103	96.4	96.8	96	92.7	104	93.1	99	95.2	99.6	102	99	102	104	104	108	0	0	0	0	0	> 10	> 10	> 10	> 10	> 10
CCCc1nc(C(C)(C)O)c(C(=O)O)n1Cc1ccc(-c2ccccc2-c2nnn[nH]2)cc1 [olmesartan]	93.8	108	93.3	98.7	99.6	93	95.5	91.8	90.9	99.3	98.8	102	97.2	96.9	92.7	98.2	96.5	98.7	93.5	99.6	105	101	102	98	101	0	0	0	0	0	> 10	> 10	> 10	> 10	> 10
CCOC(=O)C1=C[C@@H](OC(CC)CC)[C@H](NC(C)=O)[C@@H](N)C1 [oseltamivir-phosphate]	107	98.6	98	106	107	79.7	92.2	92.6	95.9	94	95.4	93.2	99.1	92.4	103	93.4	104	97.9	97.6	102	99.4	96.9	104	103	106	0	0	0	0	0	> 10	> 10	> 10	> 10	> 10
COc1ccc(COc2cc3oc(=O)c4cc(C(C)O)ccc4c3cc2OC)cc1 (stereo not given) [palomid-529]	97.3	100	101	99.6	102	107	94.1	96.4	85.6	93.7	101	100	99	100	99.7	96.3	105	94.4	94	99.8	111	98.9	84.8	101	96.2	0	0.3	0	0	0	> 10	> 10	> 10	> 10	> 10
Cc1cc(NC(=O)NCCN2CCC(O)(Cc3ccccc3)CC2)c2ccccc2n1 [palosuran]	102	110	96.3	99.7	92.5	99.5	93.1	88.3	99.4	104	104	106	99.4	104	102	99.3	94.9	98	96.5	103	95.3	91.9	103	100	89.4	0	0	0	0	0	> 10	> 10	> 10	> 10	> 10
O=C(Oc1ccccc1)c1ccccc1O [phenyl-salicylate]	100	104	97.1	110	106	95.3	93.7	98.1	97.1	97.6	105	99.8	105	98.4	104	97.7	100	97.5	102	99.4	103	101	93.6	104	94.9	0	0	0	0	0	> 10	> 10	> 10	> 10	> 10
